Patent publication US12414960B2, “Analogues of oleuropein and oleacein and uses thereof” (Attica Sciences Ltd., priority 2020, dated 2025)

Tests used:
[1] = system: MCF-7 ER+ breast cancer cells; test: XTT cell growth assay, MCF-7 ER+; format: cell-based, human; details: Homo sapiens, MCF7, 24 h, NS = not statistically significant, read-out: Effectiveness to suppress MCF7 cell growth (cell growth inhibition)
From the text: (§1) The XTT assay is used to measure cellular metabolic activity as an indicator of cell viability, proliferation and cytotoxicity. This non-radioactive, colorimetric assay system was first described by Scudiero, et al. in 1988 (Paull, Kenneth D. et al., J Heterocycl Chem, 1988, 25: 911-914; Scudiero, Dominic A. et al., Cancer Res, 1988, 48: 4827-4833) and improved in subsequent years by several other investigators (Weislow, Owen S. et al., J Natl Cancer Inst, 1989, 81(8): 577-586; Roehm, N. W. et al., J Immunol Methods, 1991, 142: 257-265).
(§2) The XTT assay is based on the reduction of a yellow tetrazolium salt (sodium 3′-[1-(phenylaminocarbonyl)-3,4-tetrazolium]-bis (4-methoxy6-nitro) benzene sulfonic acid hydrate or XTT) to an orange formazan dye by metabolically active cells (FIG. 8). The formazan dye formed is soluble in aqueous solutions and is directly quantified using a scanning multiwell spectrophotometer (ELISA reader). An increase in number of living cells results in an increase in the overall activity of mitochondrial dehydrogenases in the sample. This increase directly correlates to the amount of orange formazan formed, as monitored by the absorbance. Reduced number of living cells leads to reduced metabolism of quaternary salt and therefore reduced absorption.
(§3) Cell viability was assessed using the XTT assay kit (Roche, Mannheim, Germany) as described previously (Kouka, Paraskevi et al., Oxid Med Cell Longev. 2019, Article ID 1870965). Briefly, cancer cells per well were cultured in a 96-well plate in Dulbecco's modified Eagle's medium (DMEM). Following a 24 h incubation, 5, 10 and 50 μM of the tested GS compound was diluted in a serum-free DMEM and administered for 24 h. Subsequently, 50 μL of the XTT reagent (50:1) was added to each well. After 4 h of incubation, the absorbance was monitored at 450 nm and also at 630 nm as a reference wavelength in a BioTek ELx800 microplate reader (BioTek Instruments Inc., Winooski, VT, USA). As a negative control, samples containing serum-free DMEM only were used.
MCF-7 ER+ is a human breast cancer cell line isolated in 1970 from a person. Prior to MCF-7, it was not possible for cancer researchers to obtain a mammary cell line that was capable of living longer than a few months.
(§4) The effects of exemplary compounds on cancer cell lines and one non-tumorigenic cell line (control) were investigated using a high throughput screening assay. More specifically, the effects of the GS compounds on cell growth was evaluated by the XTT assay for cell lines HepG2, HeLa, MCF7 ER+, MDA-MB-231, and MKN-45, and by the Cell Glo luminescence assay for cell lines MIA PaCa-2, HCT-116, MCF-10A, and PANC-1.

[2] = system: MIA PaCa-2 pancreatic cancer cells; test: Cell Glo luminescence cell growth assay, MIA PaCa-2; format: cell-based, human; details: Homo sapiens, MIA PaCa-2, 24 h, NS = not statistically significant, read-out: Effectiveness to suppress MIA PaCa-2 cell growth (cell growth inhibition)
From the text: (§5) The CellTiter-Glo® Luminescent Cell Viability Assay (Promega Corporation; Madison, WI) is a homogeneous method of determining the number of viable cells in culture based on quantitation of the ATP present, an indicator of metabolically active cells. The homogeneous assay procedure involves adding the single reagent (CellTiter-Glo® Reagent) directly to cells cultured in serum-supplemented medium. The homogeneous “add-mix-measure” format results in cell lysis and generation of a luminescent signal proportional to the amount of ATP present. The amount of ATP is directly proportional to the number of cells present in culture.
(§6) Cancer cells (3,000 cells/well) were harvested in a 96-well plate. Then, the cancer cells were treated with GS compounds and incubated for 24 hours. The MT Cell Viability Substrate, NanoLuc® Enzyme and cell culture medium was equilibrated to 37° C. The 2× RealTime-Glo™ reagent was prepared by diluting the MT Cell Viability Substrate and NanoLuc® Enzyme in 37° C. cell culture medium to a 2× concentration for each reagent. For example, 1 mL of 2× RealTime-Glo™ reagent was prepared by adding 2 μL of MT Cell Viability Substrate, 1,000×, and 2 μL of NanoLuc® Enzyme, 1,000×, to 996 μL of cell culture medium to form the 2× RealTime-Glo™ reagent. Then, an equal volume of 2× RealTime-Glo™ reagent was added to the cancer cells. The cells were kept for ˜20 minutes in the cell culture incubator and then luminescence was measured by using a plate-reading luminometer.
MIA PaCa-2 is a human pancreatic ductal adenocarcinoma cell line derived from the carcinoma of a person.
as §4

[3] = system: HeLa cervical cancer cells; test: XTT cell growth assay, HeLa; format: cell-based, human; details: Homo sapiens, HeLa, 24 h, NS = not statistically significant, read-out: Effectiveness to suppress HeLa cell growth (cell growth inhibition)
From the text: as §1, §2, §3
HeLa is a human immortal cell line used in scientific research. It is the oldest and most commonly used human cell line. The line was derived from cervical cancer cells taken on Feb. 8, 1951 from Henrietta Lacks, a patient who died of cancer on Oct. 4, 1951.
as §4

[4] = system: HCT-116 colon cancer cells; test: Cell Glo luminescence cell growth assay, HCT-116; format: cell-based, human; details: NS = not statistically significant; for Effectiveness to suppress HCT-116 cell growth (cell growth inhibition): 1 uM, 24 h; for inhibition at 1 µM: Homo sapiens, HCT-116, 24 h, read-out: Effectiveness to suppress HCT-116 cell growth (cell growth inhibition)
From the text: as §5, §6
HCT-116 is a human colorectal cancer cell lines that has a mutation in RAS proto-oncogene.
as §4

[5] = system: MDA-MB-231 triple negative breast cancer cells; test: XTT cell growth assay, MDA-MB-231; format: cell-based, human; details: NS = not statistically significant; for Effectiveness to suppress MDA-MB-231 cell growth (cell growth inhibition): 50 uM, 24 h; for inhibition at 50 µM: Homo sapiens, MDA-MB-231, 24 h, read-out: Effectiveness to suppress MDA-MB-231 cell growth (cell growth inhibition)
From the text: as §1, §2, §3
MDA-MB-231 is a human epithelial breast cancer cell line that was established from a pleural effusion of a person with a metastatic mammary adenocarcinomal and is one of the most commonly used breast cancer cell lines in medical research laboratories.
as §4

[6] = Deoxyribose degradation assay (hydroxyl radical scavenging); format: biochemical; details: NS = not statistically significant
Procedure: The hydroxyl radical (OH.) is an extremely reactive in biological systems and has been implicated as highly damaging species in free radical pathology, capable of damaging biomolecules of the living cells. These radical combines with nucleotides in DNA and cause strand breakage leading to carcinogenesis, mutagenesis and cytotoxicity. Hydroxyl radical (OH.) scavenging capacity of an extract is directly related to its antioxidant activity.
The effect of extracts on hydroxyl radicals was assayed by using the deoxyribose method. 2-Deoxyribose is degraded on exposure to hydroxyl radicals generated by Fenton's reaction. The ability to neutralize the OH. is estimated as the rate of inhibition of the oxidation of 2-deoxyribose by the OH. (FIG. 5).
The measurement of the hydroxyl radical scavenging activity was evaluated for each of the GS compound by evaluating the pink chromogen absorption at 532 nm by spectrophotometry as described previously (Perjesi, Pal et al., Open Med Chem J., 2011, 5: 61-67

[7] = system: MKN-45 gastric cancer cells; test: XTT cell growth assay, MKN-45; format: cell-based, human; details: Homo sapiens, MKN-45, 24 h, NS = not statistically significant, read-out: Effectiveness to suppress MKN-45 cell growth (cell growth inhibition)
From the text: as §1, §2, §3
MKN-45 is a human gastric adenocarcinoma, established from the poorly differentiated adenocarcinoma of the stomach (medullary type) of a person.
as §4

HepG2 liver cancer cells = test: XTT cell growth assay, HepG2; format: cell-based, human; details: Homo sapiens, HepG2, 24 h, NS = not statistically significant, read-out: Effectiveness to suppress HepG2 cell growth (cell growth inhibition)
From the text: as §1, §2, §3
Hep G2 (or HepG2) is a human liver cancer cell line. Hep G2 is an immortal cell line which was derived from the liver tissue of an adolescent with a well-differentiated hepatocellular carcinoma. Hep G2 cells are a suitable in vitro model system for the study of polarized human hepatocytes.
as §4

Compound	inhibition at 50 µM [1]	inhibition at 50 µM [2]	inhibition at 50 µM [3]	Effectiveness to suppress HCT-116 cell growth (cell growth inhibition) [4]	inhibition at 1 µM [4]	Effectiveness to suppress MDA-MB-231 cell growth (cell growth inhibition) [5]	inhibition at 50 µM [5]	Deoxyribose Degradation Assay IC50 [6]	inhibition at 50 µM [7]	inhibition at 50 µM (HepG2 liver cancer cells)
C/C=C1/[C@H](OC2OC(CO)C(O)C(O)C2O)OC=C(C(=O)O)[C@H]1CC(=O)SCCc1ccccc1 (stereo in doubt) [GS11, (2S,4S,E)-3-ethylidene-4-(2-oxo-2-(phenethylthio)ethyl)-2-{[(2R,3S,4R,5R,6S)-3,4,5-trihydroxy-6-(hydroxymethyl)tetrahydro-2H-pyran-2-yl]oxy}-3,4-dihydro-2H-pyran-5-carboxylic acid]	57.8%	50%	14.4%	suppressive activity	32.9%	highest suppressive activity	74.3%	–	–	–
C/C=C(/C=O)[C@@H](CC=O)CC(=O)OCC12CC3CC(CC(C3)C1)C2 [GS23, (3S,4E)-4-formyl-3-(2-oxoethyl)hex-4-enoic acid adamantan-1-ylmethyl ester]	64.7%	15%	25.2%	–	–	–	42.7%	17.6 μg extract/mL	–	–
C/C=C1/[C@H](OC2OC(CO)C(O)C(O)C2O)OC=C(C(=O)O)[C@H]1CC(=O)OCCCSC (stereo in doubt) [GS9, (2S,4S,E)-3-ethylidene-4-(2-(3-(methylthio)propoxy)-2-oxoethyl)-2-{[(2R,3S,4R,5R,6S)-3,4,5-trihydroxy-6-(hydroxymethyl)tetrahydro-2H-pyran-2-yl]oxy}-3,4-dihydro-2H-pyran-5-carboxylic acid]	11.6%	55%	20%	suppressive activity	41.7%	highest suppressive activity	71.2%	–	–	–
C/C=C(/C=O)[C@@H](CC=O)CC(=O)OCCC1CCCCC1 [GS22, 2-cyclohexylethyl (S,E)-4-formyl-3-(2-oxoethyl)hex-4-enoate]	–	28%	48.6%	–	–	–	48%	16.8 μg extract/mL	35.8%	66.8%
C/C=C1/[C@H](OC2OC(CO)C(O)C(O)C2O)OC=C(C(=O)O)[C@H]1CC(=O)OCCOc1ccccc1 (stereo in doubt) [GS10, (2S,4S,E)-3-ethylidene-4-(2-oxo-2-(2-phenoxyethoxy)ethyl)-2-{[(2R,3S,4R,5R,6S)-3,4,5-trihydroxy-6-(hydroxymethyl)tetrahydro-2H-pyran-2-yl]oxy}-3,4-dihydro-2H-pyran-5-carboxylic acid]	58.7%	22%	33.5%	suppressive activity	25.7%	–	14%	–	31.9%	–
